Experiment [1] deals with human TLR7 (Homo sapiens (Human), UniProt Q9NYK1). As to the kind of experiment: TLR7 inhibition reporter assay (HEK-Blue SEAP). The class given is cell-based. Particulars: HEK-Blue cells overexpressing human TLR7, gardiquimod 7.5 μM stimulation, SEAP reporter.
For experiment [2], the target named is human TLR8 (Homo sapiens (Human), UniProt Q9NR97). Nature of the experiment: TLR8 inhibition reporter assay (HEK-Blue SEAP).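 Note: SEAP driven by IFN-β minimal promoter carrying NF-κB and AP-1 sites, compounds dosed 0.05 nM to 50 µM for 22 h, inhibition scaled between agonist-plus-DMSO and reference-inhibitor wells.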 The note with it: read-out: TLR8 IC50; HEK-Blue cells overexpressing human TLR8, R848 15.9 μM stimulation, SEAP reporter.
Sequence of human TLR8 (Q9NR97 27-1041): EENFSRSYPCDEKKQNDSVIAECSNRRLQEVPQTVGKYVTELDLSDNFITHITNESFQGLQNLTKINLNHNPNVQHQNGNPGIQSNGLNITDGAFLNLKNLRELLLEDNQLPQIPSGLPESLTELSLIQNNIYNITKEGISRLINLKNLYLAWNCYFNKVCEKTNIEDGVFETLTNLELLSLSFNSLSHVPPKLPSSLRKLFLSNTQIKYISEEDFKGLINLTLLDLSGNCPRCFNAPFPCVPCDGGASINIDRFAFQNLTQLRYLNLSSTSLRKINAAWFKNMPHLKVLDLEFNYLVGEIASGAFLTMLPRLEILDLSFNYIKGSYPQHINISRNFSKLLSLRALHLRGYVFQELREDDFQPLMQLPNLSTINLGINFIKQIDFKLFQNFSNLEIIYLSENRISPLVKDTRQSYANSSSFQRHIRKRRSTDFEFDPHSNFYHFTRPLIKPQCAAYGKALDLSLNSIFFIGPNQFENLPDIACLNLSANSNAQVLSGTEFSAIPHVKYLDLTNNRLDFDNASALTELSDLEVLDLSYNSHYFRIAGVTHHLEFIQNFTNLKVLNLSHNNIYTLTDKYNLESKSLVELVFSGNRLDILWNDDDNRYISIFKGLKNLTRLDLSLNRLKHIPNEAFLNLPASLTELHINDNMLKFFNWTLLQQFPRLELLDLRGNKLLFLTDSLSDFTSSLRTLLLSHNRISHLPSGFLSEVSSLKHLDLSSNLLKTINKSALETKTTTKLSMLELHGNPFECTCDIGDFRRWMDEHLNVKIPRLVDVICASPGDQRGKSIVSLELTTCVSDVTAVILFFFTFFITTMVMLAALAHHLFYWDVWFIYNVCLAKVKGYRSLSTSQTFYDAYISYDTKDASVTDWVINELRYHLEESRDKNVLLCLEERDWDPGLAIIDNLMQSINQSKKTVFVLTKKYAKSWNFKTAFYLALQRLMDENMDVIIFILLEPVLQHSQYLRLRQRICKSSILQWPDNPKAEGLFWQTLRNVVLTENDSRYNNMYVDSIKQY
The target in experiment [3] is human TLR9 (Homo sapiens (Human), UniProt Q9NR96). Nature of the experiment: TLR9 inhibition reporter assay (HEK-Blue SEAP).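 Note: SEAP driven by an IFN-β minimal promoter with NF-κB and AP-1 sites, read after 22 h, compounds dosed 0.05 nM–50 µM, inhibition scaled between agonist plus DMSO and reference-inhibitor wells.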 Particulars: read-out: TLR9 IC50; HEK-Blue cells overexpressing human TLR9, ODN2006 5 nM stimulation, SEAP reporter. For orientation: In a reporter assay the amount or activity of a reporter protein is the signal.
Sequence of human TLR9 (Q9NR96 26-1032): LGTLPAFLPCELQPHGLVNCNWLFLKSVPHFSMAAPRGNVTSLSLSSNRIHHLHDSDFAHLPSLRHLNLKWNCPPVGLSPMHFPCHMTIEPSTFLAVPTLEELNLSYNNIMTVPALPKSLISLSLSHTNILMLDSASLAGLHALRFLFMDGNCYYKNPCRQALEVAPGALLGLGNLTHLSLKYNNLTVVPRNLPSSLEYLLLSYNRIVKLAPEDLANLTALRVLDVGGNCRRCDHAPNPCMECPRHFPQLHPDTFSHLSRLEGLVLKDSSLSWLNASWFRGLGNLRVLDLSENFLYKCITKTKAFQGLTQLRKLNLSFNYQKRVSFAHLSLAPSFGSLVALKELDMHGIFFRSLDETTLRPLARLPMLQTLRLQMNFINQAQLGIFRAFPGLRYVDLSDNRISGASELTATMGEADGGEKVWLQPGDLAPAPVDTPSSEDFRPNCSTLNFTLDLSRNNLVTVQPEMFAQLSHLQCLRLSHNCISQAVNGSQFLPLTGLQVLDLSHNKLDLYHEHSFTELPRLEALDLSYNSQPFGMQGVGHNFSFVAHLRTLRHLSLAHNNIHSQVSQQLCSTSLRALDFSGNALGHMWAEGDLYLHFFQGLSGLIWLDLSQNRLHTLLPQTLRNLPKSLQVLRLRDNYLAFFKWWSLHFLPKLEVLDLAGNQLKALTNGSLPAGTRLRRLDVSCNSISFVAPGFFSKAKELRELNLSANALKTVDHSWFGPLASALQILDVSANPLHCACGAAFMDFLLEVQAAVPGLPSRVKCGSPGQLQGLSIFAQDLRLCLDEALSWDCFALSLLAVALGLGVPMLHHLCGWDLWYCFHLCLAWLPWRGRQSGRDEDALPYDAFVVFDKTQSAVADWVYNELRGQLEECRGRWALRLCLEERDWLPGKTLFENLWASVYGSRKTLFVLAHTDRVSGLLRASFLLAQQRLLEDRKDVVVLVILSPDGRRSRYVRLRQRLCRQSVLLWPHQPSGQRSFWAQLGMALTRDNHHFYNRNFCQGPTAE
Method: HEK-Blue™-cells (Invivogen) overexpressing human TLR7, TLR8 or TLR9 receptors were used for screening inhibitors of these receptors using an inducible SEAP (secreted embryonic alkaline phosphatase) reporter gene under the control of the IFN-β minimal promoter fused to five NF-κB and AP-1-binding sites. Briefly, cells are seeded into Greiner 384 well plates (15000 cells per well for TLR7, 20,000 for TLR8 and 25,000 for TLR9) and then treated with test compounds in DMSO to yield a final dose response concentration range of 0.05 nM-50 μM. After a 30 minute compound pre-treatment at room temperature, the cells are then stimulated with a TLR7 ligand (gardiquimod at a final concentration of 7.5 μM), TLR8 ligand (R848 at a final concentration of 15.9 μM) or TLR9 ligand (ODN2006 at a final concentration of 5 nM) to activate NF-κB and AP-1 which induce the production of SEAP. After a 22 hour incubation at 37° C., 5% CO2, SEAP levels are determined with the addition of HEK-Blue™ Detection reagent (Invivogen), a cell culture medium that allows for detection of SEAP, according to manufacturer's specifications.

A word on the IC50: it is the midpoint of a concentration-inhibition curve.

Sequence of human TLR7 (Q9NYK1 27-1049): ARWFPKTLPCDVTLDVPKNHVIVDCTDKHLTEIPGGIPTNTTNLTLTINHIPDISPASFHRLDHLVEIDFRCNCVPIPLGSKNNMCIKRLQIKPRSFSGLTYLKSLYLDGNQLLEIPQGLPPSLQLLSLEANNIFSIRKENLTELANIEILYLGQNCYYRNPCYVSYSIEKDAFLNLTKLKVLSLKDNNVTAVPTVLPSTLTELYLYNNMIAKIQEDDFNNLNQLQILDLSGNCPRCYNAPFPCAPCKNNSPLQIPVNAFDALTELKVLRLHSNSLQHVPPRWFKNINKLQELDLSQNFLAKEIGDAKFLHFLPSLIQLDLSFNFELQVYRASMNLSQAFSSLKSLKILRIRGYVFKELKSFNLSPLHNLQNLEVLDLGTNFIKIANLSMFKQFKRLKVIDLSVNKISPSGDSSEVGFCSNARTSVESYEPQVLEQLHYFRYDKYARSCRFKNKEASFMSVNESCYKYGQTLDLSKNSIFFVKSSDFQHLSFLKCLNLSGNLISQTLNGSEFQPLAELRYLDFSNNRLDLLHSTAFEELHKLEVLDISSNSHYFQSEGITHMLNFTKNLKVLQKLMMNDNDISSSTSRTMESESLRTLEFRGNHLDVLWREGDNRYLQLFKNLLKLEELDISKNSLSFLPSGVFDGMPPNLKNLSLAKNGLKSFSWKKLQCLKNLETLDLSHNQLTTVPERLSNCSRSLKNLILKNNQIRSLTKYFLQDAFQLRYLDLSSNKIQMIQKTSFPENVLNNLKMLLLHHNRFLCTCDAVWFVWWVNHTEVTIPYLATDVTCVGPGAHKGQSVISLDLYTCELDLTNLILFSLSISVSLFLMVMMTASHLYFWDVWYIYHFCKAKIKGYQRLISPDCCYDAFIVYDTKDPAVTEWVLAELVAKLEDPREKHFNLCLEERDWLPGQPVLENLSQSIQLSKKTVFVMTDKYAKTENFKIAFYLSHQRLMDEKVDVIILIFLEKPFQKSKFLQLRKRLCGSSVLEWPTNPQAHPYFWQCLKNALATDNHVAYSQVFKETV

For `COc1cc(-c2[nH]c3ccc(C4CCC(N(C)Cc5cnc(C)cn5)CC4)nc3c2C(C)C)cn2ncnc12` (stereo not drawn) [Example 203], the IC50 in experiment [1] turned out to be 0.002 µM; in experiment [2], 0.0079 µM; in experiment [3] it was 0.537 µM.

For `COc1cc(-c2[nH]c3ccc(C4CCC(NCc5cnco5)CC4)nc3c2C(C)C)cn2ncnc12` (stereo not drawn) [Example 204], the IC50 came out at 0.00098 µM in experiment [1], 0.0029 µM in experiment [2] and 1.33 µM in experiment [3].

In the case of `Cc1cnc(CNC2CCC(c3ccc4[nH]c(-c5cn(C)c6ncccc56)c(C(C)C)c4n3)CC2)cn1` (stereo not drawn) [Example 205], the IC50 turned out to be 0.00042 µM in experiment [1], 0.001 µM in experiment [2] and 0.134 µM in experiment [3].

Consider `COc1cc(-c2[nH]c3ccc(C4CCC(NCc5cnco5)CC4)nc3c2C(C)C)cn2ncnc12` (stereo not drawn) [Example 206], for which the IC50 is 0.0095 µM in experiment [1], 0.022 µM in experiment [2] and 2.39 µM in experiment [3].

As for `Cc1cnc(CNC2CCC(c3ccc4[nH]c(-c5cn(C)c6ncccc56)c(C(C)C)c4n3)CC2)cn1` (stereo not drawn) [Example 207], the IC50 in experiment [1] is 0.0019 µM; in experiment [2] it was 0.0044 µM; in experiment [3], 0.253 µM.

On to `COc1cc(-c2[nH]c3ccc(C4CCC(N(C)Cc5ncccn5)CC4)nc3c2C(C)C)cn2ncnc12` (stereo not drawn) [Example 208], for which the IC50 was determined as 0.0022 µM in experiment [1], 0.016 µM in experiment [2] and 1.35 µM in experiment [3].

On to `COc1cc(-c2[nH]c3ccc(C4CCC(N(C)Cc5ncccn5)CC4)nc3c2C(C)C)cn2ncnc12` (stereo not drawn) [Example 209], for which the IC50 in experiment [1] came to 0.00071 µM; in experiment [2], 0.004 µM; in experiment [3], 0.641 µM.

As for `CNC(=O)CN(C)C1CCC(c2ccc3[nH]c(-c4cc(OC)c5ncnn5c4)c(C(C)C)c3n2)CC1` (stereo not drawn) [Example 210], the results for the IC50 in experiment [1], in experiment [2] and in experiment [3] were more than 3.12 µM, more than 3.12 µM and more than 50 µM, respectively.

Turning to `COc1cc(-c2[nH]c3ccc(C4CCC(N(C)CC(=O)N(C)C)CC4)nc3c2C(C)C)cn2ncnc12` (stereo not drawn) [Example 211], the IC50 in experiment [1] worked out at 0.0011 µM; in experiment [2] it was 0.0068 µM; in experiment [3], 0.585 µM.

`COc1cc(-c2[nH]c3ccc(C4CCC(N(C)CC(N)=O)CC4)nc3c2C(C)C)cn2ncnc12` (stereo not drawn) [Example 212]: the half-maximal inhibitory concentration (IC50) in experiment [1] turned out to be 0.0034 µM; in experiment [2], 0.0068 µM; in experiment [3] it was 1.19 µM.

On to `COCc1cc(-c2[nH]c3ccc(C4CCC(NCC(=O)N(C)C)CC4)nc3c2C(C)C)cn2ncnc12` (stereo not drawn) [Example 213], for which the figures for the IC50 in experiment [1], in experiment [2] and in experiment [3] were 0.0095 µM, 0.017 µM and 0.706 µM, respectively.

With `COCc1cc(-c2[nH]c3ccc(C4CCC(NC5COC5)CC4)nc3c2C(C)C)cn2ncnc12` (stereo not drawn) [Example 214], the figures for the IC50 in experiment [1], in experiment [2] and in experiment [3] were 0.0039 µM, 0.0063 µM and 0.833 µM, respectively.

Take `CC(C)c1c(-c2cc(CO)c3ncnn3c2)[nH]c2ccc(C3CCC(NC4COC4)CC3)nc12` (stereo not drawn) [Example 215]: the values for the IC50 in experiment [1], in experiment [2] and in experiment [3] were […], 0.0076 µM and 2.25 µM, respectively.

As for `CC(C)c1c(-c2cc(CO)c3ncnn3c2)[nH]c2ccc(C3CCC(NCc4c[nH]nn4)CC3)nc12` (stereo not drawn) [Example 218], the half-maximal inhibitory concentration (IC50) is 0.0085 µM in experiment [1], 0.02 µM in experiment [2] and 0.389 µM in experiment [3].

For the molecule `COc1cc(-c2[nH]c3ccc(C4CCC(NCC5(S(C)(=O)=O)CC5)CC4)nc3c2C(C)C)cn2ncnc12` (stereo not drawn) [Example 219], the figures for the IC50 in experiment [1], in experiment [2] and in experiment [3] were 0.0039 µM, 0.008 µM and 2.48 µM, respectively.

`CC(C)c1c(-c2cc(CO)c3ncnn3c2)[nH]c2ccc(C3CCC(NC4COC4)CC3)nc12` (stereo not drawn) [Example 220]: the results for the IC50 in experiment [1], in experiment [2] and in experiment [3] were […], 0.0061 µM and 1.02 µM, respectively.

As for `CC(C)c1c(-c2cc(CO)c3ncnn3c2)[nH]c2ccc(C3CCC(NCc4c[nH]nn4)CC3)nc12` (stereo not drawn) [Example 221], the IC50 in experiment [1] stood at 0.0037 µM; in experiment [2], 0.013 µM; in experiment [3], 0.435 µM.

Regarding `Cc1cnc(CNC2CCC(c3ccc4[nH]c(-c5cc(CO)c6ncnn6c5)c(C(C)C)c4n3)CC2)cn1` (stereo not drawn) [Example 224], the IC50 stood at 0.0015 µM in experiment [1], 0.0042 µM in experiment [2] and 0.718 µM in experiment [3].

Regarding `COc1cc(-c2[nH]c3ccc(C4CCC(N(C)CC(N)=O)CC4)nc3c2C(C)C)cn2ncnc12` (stereo not drawn) [Example 225], the figures for the 50% inhibitory concentration (IC50) in experiment [1], in experiment [2] and in experiment [3] were 0.004 µM, 0.035 µM and 3.36 µM, respectively.

Consider `COc1cc(-c2[nH]c3ccc(C4CCC(N(C)CC(=O)N(C)C)CC4)nc3c2C(C)C)cn2ncnc12` (stereo not drawn) [Example 226], for which the IC50 was 0.0027 µM in experiment [1], 0.014 µM in experiment [2] and 1.79 µM in experiment [3].

For the molecule `CNC(=O)CN(C)C1CCC(c2ccc3[nH]c(-c4cc(OC)c5ncnn5c4)c(C(C)C)c3n2)CC1` (stereo not drawn) [Example 227], the IC50 was 0.002 µM in experiment [1], 0.0077 µM in experiment [2] and 0.926 µM in experiment [3].

For `CNC(=O)CN(C)C1CCC(c2ccc3[nH]c(-c4cc(OC)c5ncnn5c4)c(C(C)C)c3n2)CC1` (stereo not drawn) [Example 228], the IC50 in experiment [1] was found to be 0.0033 µM; in experiment [2] it was 0.023 µM; in experiment [3] it was 2.39 µM.

As to `COCc1cc(-c2[nH]c3ccc(C4CCC(NC5COC5)CC4)nc3c2C(C)C)cn2ncnc12` (stereo not drawn) [Example 229], the IC50 in experiment [1] came to 0.019 µM; in experiment [2], 0.018 µM; in experiment [3], 1.71 µM.

Consider `COCc1cc(-c2[nH]c3ccc(C4CCC(NCC(=O)N(C)C)CC4)nc3c2C(C)C)cn2ncnc12` (stereo not drawn) [Example 230], for which the results for the IC50 in experiment [1], in experiment [2] and in experiment [3] were 0.038 µM, 0.033 µM and 2.46 µM, respectively.

Turning to `COc1cc(-c2[nH]c3ccc(C4CCC(NCC(=O)N(C)C)CC4)nc3c2C(C)C)cn2ncnc12` (stereo not drawn) [Example 231], the IC50 in experiment [1] stood at 0.00061 µM; in experiment [2] it was 0.003 µM; in experiment [3], 0.365 µM.

`COc1cc(-c2[nH]c3ccc(C4CCC(NCC(=O)N(C)C)CC4)nc3c2C(C)C)cn2ncnc12` (stereo not drawn) [Example 232]: the IC50 was 0.003 µM in experiment [1], 0.0098 µM in experiment [2] and 0.484 µM in experiment [3].

As for `Cc1c(-c2[nH]c3ccc(C4CCC(NC5COC5)CC4)nc3c2C(C)C)cn2cnnc2c1C` (stereo not drawn) [Example 233], the IC50 in experiment [1] was found to be 0.011 µM; in experiment [2], 0.024 µM; in experiment [3], 2.66 µM.

As for `Cc1c(-c2[nH]c3ccc(C4CCC(NC5COC5)CC4)nc3c2C(C)C)cn2cnnc2c1C` (stereo not drawn) [Example 234], the half-maximal inhibitory concentration (IC50) is 0.0016 µM in experiment [1], 0.005 µM in experiment [2] and 0.435 µM in experiment [3].

Take `CC(C)c1c(-c2cc(CO)c3ncnn3c2)[nH]c2ccc(C3CCC(NC4COC4)CC3)nc12` (stereo not drawn) [Example 235]: the IC50 was found to be […] in experiment [1], 0.002 µM in experiment [2] and 0.929 µM in experiment [3].

As for `CC(C)c1c(-c2cn(C)c3ncccc23)[nH]c2ccc(C3CCC(NCC4(S(C)(=O)=O)CC4)CC3)nc12` (stereo not drawn) [Example 236], the figures for the IC50 in experiment [1], in experiment [2] and in experiment [3] were 0.0039 µM, 0.0028 µM and 0.376 µM, respectively.

On to `Cc1c(-c2[nH]c3ccc(C4CCC(N(C5CC5)C5COC5)CC4)nc3c2C(C)C)cn2cnnc2c1C` (stereo not drawn) [Example 237], for which the IC50 in experiment [1] amounted to 0.02 µM; in experiment [2], 0.019 µM; in experiment [3], 18.2 µM.

Consider `CC(C)c1c(-c2cn(C)c3ncccc23)[nH]c2ccc(C3CCC(NCC4(S(C)(=O)=O)CC4)CC3)nc12` (stereo not drawn) [Example 238], for which the IC50 in experiment [1] amounted to 0.00071 µM; in experiment [2], 0.00097 µM; in experiment [3], 0.297 µM.

In the case of `Cc1c(-c2[nH]c3ccc(C4CCC(N(C5CC5)C5COC5)CC4)nc3c2C(C)C)cn2cnnc2c1C` (stereo not drawn) [Example 239], the IC50 in experiment [1] was 0.106 µM; in experiment [2] it was 0.181 µM; in experiment [3], more than 50 µM.

Regarding `COc1cc(-c2[nH]c3ccc(C4CCC(N(C)C5COC5)CC4)nc3c2C(C)C)cn2ncnc12` (stereo not drawn) [Example 240], the IC50 in experiment [1] came out at 0.0054 µM; in experiment [2] it was 0.016 µM; in experiment [3], 5.08 µM.

Turning to `COc1cc(-c2[nH]c3ccc(C4CCC(N(C)CCS(C)(=O)=O)CC4)nc3c2C(C)C)cn2ncnc12` (stereo not drawn) [Example 241], the values for the IC50 in experiment [1], in experiment [2] and in experiment [3] were 0.002 µM, 0.0029 µM and 1.75 µM, respectively.

With `COc1cc(-c2[nH]c3ccc(C4CCC(N(C)CCS(C)(=O)=O)CC4)nc3c2C(C)C)cn2ncnc12` (stereo not drawn) [Example 242], the IC50 was 0.0015 µM in experiment [1], 0.015 µM in experiment [2] and 2.41 µM in experiment [3].

`CC(C)c1c(-c2cn(C)c3ncccc23)[nH]c2ccc(C3CCC(NC4CC4)CC3)nc12` (stereo not drawn) [Example 243]: the IC50 in experiment [1] was 0.0076 µM; in experiment [2], 0.0095 µM; in experiment [3], 0.999 µM.

With `COc1cc(-c2[nH]c3ccc(C4CCC(N5CC6(COC6)C5)CC4)nc3c2C(C)C)cn2ncnc12` (stereo not drawn) [Example 244], the IC50 came to 0.0016 µM in experiment [1], 0.0082 µM in experiment [2] and 2.35 µM in experiment [3].

As to `CC(C)c1c(-c2cn(C)c3ncccc23)[nH]c2ccc(C3CCC(N4CC5(COC5)C4)CC3)nc12` (stereo not drawn) [Example 245], the IC50 in experiment [1] was determined as 0.0027 µM; in experiment [2] it was 0.0047 µM; in experiment [3] it was 0.343 µM.

For `CC(C)c1c(-c2cc(CO)c3ncnn3c2)[nH]c2ccc(C3CCC(N(C)C4COC4)CC3)nc12` (stereo not drawn) [Example 246], the figures for the IC50 in experiment [1], in experiment [2] and in experiment [3] were 0.0019 µM, 0.0026 µM and 4.28 µM, respectively.

Take `CC(C)c1c(-c2cn(C)c3ncccc23)[nH]c2ccc(C3CCC(NCCS(C)(=O)=O)CC3)nc12` (stereo not drawn) [Example 247]: the IC50 in experiment [1] was 0.0012 µM; in experiment [2] it was 0.0012 µM; in experiment [3], 0.825 µM.

On to `COc1cc(-c2[nH]c3ccc(C4CCC(N5CC6(C5)CS(=O)(=O)C6)CC4)nc3c2C(C)C)cn2ncnc12` (stereo not drawn) [Example 248], for which the IC50 turned out to be 0.0015 µM in experiment [1], 0.013 µM in experiment [2] and 1.79 µM in experiment [3].

The record behind these values is patent publication US10544143B2, “4-azaindole compounds” (BRISTOL-MYERS SQUIBB COMPANY, priority 2017, dated 2020).
